Data as given in US12404283B2, “c-MYC mRNA translation modulators and uses thereof in the treatment of cancer” (Anima Biotech Inc., priority 2022, dated 2025).

Tested on: c-Myc
Test: c-Myc immunofluorescence assay
Assay type: cell-based, human
Settings: A549 cells, 24 hours treatment, anti-c-Myc immunofluorescence
Method in brief: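 A549 cells grown 48 h, exposed 24 h to rising compound concentrations, then fixed, permeabilised and stained for c-Myc plus DAPI. Nuclear-segmented c-Myc fluorescence quantified by high-content imaging at 20×; EC50 from logistic dose–response fits.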

Structure (SMILES)	Myc Efficacy (−LogEC50)
CNC(=O)c1ccc(-c2cn3c(n2)sc2cc(C(=O)NCCCN4CCCCC4)ncc23)cc1 [compound 406, 2-(4-(methylcarbamoyl)phenyl)-N-(3-(piperidin-1-yl)propyl)imidazo[2′,1′:2,3] thiazolo[4,5-c]pyridine-7-carboxamide]	++ (++ ≥5 and <6)
O=C(NCCCN1CCCCC1)c1ccc2c(c1)sc1nc(-c3ccc([C@H]4CCCN4)cc3)cn12 [compound 412, (R)-N-(3-(piperidin-1-yl)propyl)-2-(4-(pyrrolidin-2-yl)phenyl)benzo[d]imidazo [2,1-b]thiazole-7-carboxamide]	+++ (+++ ≥6)
O=C(NCCCN1CCCCC1)c1ccc2c(c1)sc1nc(-c3ccc([C@@H]4CCCN4)cc3)cn12 [compound 413, (S)-N-(3-(piperidin-1-yl)propyl)-2-(4-(pyrrolidin-2-yl)phenyl)benzo[d]imidazo [2,1-b]thiazole-7-carboxamide]	+++ (+++ ≥6)
CCN(CC)CCCNC(=O)c1ccc2c(c1)sc1nc(-c3ccc([C@H]4CCCN4)cc3)cn12 [compound 414, (R)-N-(3-(diethylamino)propyl)-2-(4-(pyrrolidin-2-yl)phenyl)benzo[d]imidazo [2,1-b]thiazole-7-carboxamide]	+++ (+++ ≥6)
CCN(CC)CCCNC(=O)c1ccc2c(c1)sc1nc(-c3ccc([C@@H]4CCCN4)cc3)cn12 [compound 415, (S)-N-(3-(diethylamino)propyl)-2-(4-(pyrrolidin-2-yl)phenyl)benzo[d]imidazo [2,1-b]thiazole-7-carboxamide]	+++ (+++ ≥6)
O=C(NCCCN1CCCCC1)c1ccc2c(c1)sc1nc(-c3ccc(C4CCCN4)cc3F)cn12 (stereo not shown) [compound 416, 2-(2-fluoro-4-(pyrrolidin-2-yl)phenyl)-N-(3-(piperidin-1-yl)propyl)benzo[d]imidazo [2,1-b]thiazole-7-carboxamide]	+++ (+++ ≥6)
O=C(NCCCN1CCCCC1)c1ccc2c(c1)sc1nc(-c3ccc([C@H]4CCCN4)cc3F)cn12 [compound 417, (R)-2-(2-fluoro-4-(pyrrolidin-2-yl)phenyl)-N-(3-(piperidin-1-yl)propyl)benzo[d]imidazo [2,1-b]thiazole-7-carboxamide]	+++ (+++ ≥6)
O=C(NCCCN1CCCCC1)c1ccc2c(c1)sc1nc(-c3ccc([C@@H]4CCCN4)cc3F)cn12 [compound 418, (S)-2-(2-fluoro-4-(pyrrolidin-2-yl)phenyl)-N-(3-(piperidin-1-yl)propyl)benzo[d]imidazo [2,1-b]thiazole-7-carboxamide]	+++ (+++ ≥6)
O=C(NCCCN1CCC(F)CC1)c1ccc2c(c1)sc1nc(-c3ccc([C@H]4CCCN4)cc3F)cn12 [compound 419, (R)-2-(2-fluoro-4-(pyrrolidin-2-yl)phenyl)-N-(3-(4-fluoropiperidin-1-yl)propyl)benzo[d]imidazo [2,1-b]thiazole-7-carboxamide]	+++ (+++ ≥6)
O=C(NCCCN1CCC(F)CC1)c1ccc2c(c1)sc1nc(-c3ccc([C@@H]4CCCN4)cc3F)cn12 [compound 420, (S)-2-(2-fluoro-4-(pyrrolidin-2-yl)phenyl)-N-(3-(4-fluoropiperidin-1-yl)propyl)benzo[d]imidazo [2,1-b]thiazole-7-carboxamide]	+++ (+++ ≥6)
O=C(NCCCN1CCCCC1)c1ccc2c(c1)sc1nc(-c3ccc([C@H]4CCCN4)cc3F)nn12 [compound 421, (R)-2-(2-fluoro-4-(pyrrolidin-2-yl)phenyl)-N-(3-(piperidin-1-yl)propyl)benzo[4,5]thiazolo [3,2-b][1,2,4]triazole-6-carboxamide]	++ (++ ≥5 and <6)
O=C(NCCCN1CCCCC1)c1ccc2c(c1)sc1nc(-c3ccc([C@@H]4CCCN4)cc3F)nn12 [compound 422, (S)-2-(2-fluoro-4-(pyrrolidin-2-yl)phenyl)-N-(3-(piperidin-1-yl)propyl)benzo[4,5]thiazolo [3,2-b][1,2,4]triazole-6-carboxamide]	+++ (+++ ≥6)
O=C(NCCCN1CCC(F)CC1)c1ccc2c(c1)sc1nc(-c3ccc(C4(O)COC4)cc3F)cn12 [compound 425]	+++ (+++ ≥6)
O=C(NCCCN1CCC(F)CC1)c1ccc2c(c1)sc1nc(-c3cc4c(cc3F)CNC4)cn12 [compound 454, 2-(6-fluoroisoindolin-5-yl)-N-(3-(4-fluoropiperidin-1-yl)propyl)benzo[d]imidazo [2,1-b]thiazole-7-carboxamide]	+++ (+++ ≥6)
O=C(NCCCN1CCC(F)CC1)c1ccc2c(c1)sc1nc(-c3c(F)cc(C4CCCN4)cc3C3CC3)cn12 (stereo not shown) [compound 475, 2-(2-cyclopropyl-6-fluoro-4-(pyrrolidin-2-yl)phenyl)-N-(3-(4-fluoropiperidin-1-yl)propyl)benzo[d]imidazo[2,1-b]thiazole-7-carboxamide]	++ (++ ≥5 and <6)
O=C(NCCCN1CCC(F)CC1)c1ccc2c(c1)sc1nc(-c3cc(F)c(C4CCCN4)cc3F)cn12 (stereo not shown) [compound 477, 2-(2,5-difluoro-4-(pyrrolidin-2-yl)phenyl)-N-(3-(4-fluoropiperidin-1-yl)propyl)benzo[d]imidazo[2,1-b]thiazole-7-carboxamide]	+++ (+++ ≥6)

Structure (SMILES)	Myc Efficacy (−LogEC50)
O=C(NCCCN1CCC(F)CC1)c1ccc2c(c1)sc1nc(-c3ccc(-c4ncc[nH]4)cc3F)cn12 [compound 482, 2-(2-fluoro-4-(1H-imidazol-2-yl)phenyl)-N-(3-(4-fluoropiperidin-1-yl)propyl)benzo[d]imidazo[2,1-b]thiazole-7-carboxamide]	+++ (+++ ≥6)
O=C(NCCCN1CCC(F)CC1)c1ccc2c(c1)sc1nc(-c3cc(F)c(C4CCCN4)c(Cl)c3)cn12 (stereo not shown) [compound 485, 2-(3-chloro-5-fluoro-4-(pyrrolidin-2-yl)phenyl)-N-(3-(4-fluoropiperidin-1-yl)propyl)benzo[d]imidazo[2,1-b]thiazole-7-carboxamide]	+++ (+++ ≥6)
O=C1CCCC(c2ccc(-c3cn4c(n3)sc3cc(C(=O)NCCCN5CCC(F)CC5)ccc34)c(F)c2)N1 (stereo not shown) [compound 486]	++ (++ ≥5 and <6)
O=C(NCCCN1CCC(F)CC1)c1ccc2c(c1)sc1nc(-c3ccc(-c4ccn[nH]4)cc3F)cn12 [compound 487, 2-(2-fluoro-4-(1H-pyrazol-5-yl)phenyl)-N-(3-(4-fluoropiperidin-1-yl)propyl)benzo[d]imidazo[2,1-b]thiazole-7-carboxamide]	++ (++ ≥5 and <6)
COc1cc(-c2cn3c(n2)sc2cc(C(=O)NCCCN4CCC(F)CC4)ccc23)c(F)cc1C1CCCN1 (stereo not shown) [compound 489, 2-(2-fluoro-5-methoxy-4-(pyrrolidin-2-yl)phenyl)-N-(3-(4-fluoropiperidin-1-yl)propyl)benzo[d]imidazo[2,1-b]thiazole-7-carboxamide]	++ (++ ≥5 and <6)
Cc1cc(-c2cn3c(n2)sc2cc(C(=O)NCCCN4CCC(F)CC4)ccc23)ccn1 [compound 495, N-(3-(4-fluoropiperidin-1-yl)propyl)-2-(2-methylpyridin-4-yl)benzo[d]imidazo[2,1-b]thiazole-7-carboxamide]	+++ (+++ ≥6)
NC(=O)c1ccc2c(c1)sc1nc(-c3ccc([C@@H]4C[C@H](O)CN4)cc3F)cn12 [compound 520, 2-(2-fluoro-4-((2S,4S)-4-hydroxypyrrolidin-2-yl)phenyl)benzo[d]imidazo[2,1-b]thiazole-7-carboxamide]	++ (++ ≥5 and <6)
CNC(=O)c1ccc2c(c1)sc1nc(-c3ccc([C@@H]4C[C@H](O)CN4)cc3F)cn12 [compound 521, 2-(2-fluoro-4-((2S,4S)-4-hydroxypyrrolidin-2-yl)phenyl)-N-methylbenzo[d]imidazo[2,1-b]thiazole-7-carboxamide]	+++ (+++ ≥6)
CN1CC[C@@H](NC(=O)c2ccc3c(c2)sc2nc(-c4ccc([C@@H]5CCCN5)cc4F)cn23)[C@@H](F)C1 [compound 526, N-((3S,4R)-3-fluoro-1-methylpiperidin-4-yl)-2-(2-fluoro-4-(pyrrolidin-2-yl)phenyl)benzo[d]imidazo[2,1-b]thiazole-7-carboxamide]	++ (++ ≥5 and <6)
CN1CCC(NC(=O)c2ccc3c(c2)sc2nc(-c4ccc(C5CCNCC5)cc4F)cn23)CC1 [compound 527, 2-(2-fluoro-4-(piperidin-4-yl)phenyl)-N-(1-methylpiperidin-4-yl)benzo[d]imidazo[2,1-b]thiazole-7-carboxamide]	+++ (+++ ≥6)
CN1CCC(NC(=O)c2ccc3c(c2)sc2nc(-c4ccc(C5(O)CCNCC5)cc4F)cn23)CC1 [compound 528, 2-(2-fluoro-4-(4-hydroxypiperidin-4-yl)phenyl)-N-(1-methylpiperidin-4-yl)benzo[d]imidazo[2,1-b]thiazole-7-carboxamide]	+++ (+++ ≥6)
CN1CCC(NC(=O)c2ccc3c(c2)sc2nc(-c4ccc(C5(O)CCNC5)cc4F)cn23)CC1 (stereo not shown) [compound 530, 2-(2-fluoro-4-(3-hydroxypyrrolidin-3-yl)phenyl)-N-(1-methylpiperidin-4-yl)benzo[d]imidazo[2,1-b]thiazole-7-carboxamide]	+++ (+++ ≥6)
CN1C2CCC1CC(NC(=O)c1ccc3c(c1)sc1nc(-c4ccc([C@@H]5CCCN5)cc4F)cn13)C2 (stereo partly shown) [compound 531, 2-(2-fluoro-4-(pyrrolidin-2-yl)phenyl)-N-(8-methyl-8-azabicyclo[3.2.1]octan-3-yl)benzo[d]imidazo[2,1-b]thiazole-7-carboxamide]	++ (++ ≥5 and <6)
NC(=O)c1ccc2c(c1)sc1nc(-c3ccc(C4CC(C(F)F)CN4)cc3F)cn12 (stereo not shown) [compound 540, 2-(4-(4-(difluoromethyl)pyrrolidin-2-yl)-2-fluorophenyl)benzo[d]imidazo [2,1-b]thiazole-7-carboxamide]	+++ (+++ ≥6)
CN1CCC(NC(=O)c2ccc3c(c2)sc2nc(-c4ccc(C5CC(C#N)CN5)cc4F)cn23)CC1 (stereo not shown) [compound 541, 2-(4-(4-cyanopyrrolidin-2-yl)-2-fluorophenyl)-N-(1-methylpiperidin-4-yl)benzo[d]imidazo[2,1-b]thiazole-7-carboxamide]	+++ (+++ ≥6)
